Data as given in ChEMBL document CHEMBL1201862, “PubChem BioAssay data set” (2004).
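How tested: cells in 96-well plates exposed to compound for 48 hours at five concentrations. GI50 is the concentration that inhibits growth by half.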 Active and inactive are the calls of the source. No stated cut-off is given here; in the data, active = GI50 up to about 1.1 µM and inactive = higher.

Assays:
Assay in all cases: DTP human tumour cell line panel, 48 h
[1] = test system: SW-620
[2] = test system: HT-29
[3] = test system: HCT-15
[4] = test system: SK-MEL-2
[5] = test system: COLO 205
[6] = test system: SN12C
[7] = test system: M19-MEL
[8] = test system: M14
[9] = test system: SK-MEL-28
[10] = test system: Malme-3M
[11] = test system: CAKI-1
[12] = test system: SNB-19
[13] = test system: SK-MEL-5
[14] = test system: ACHN
[15] = test system: UO-31
[16] = test system: HL-60
[17] = test system: SF-268
[18] = test system: SR
[19] = test system: A498
[20] = test system: MCF7

`CC(=O)Nc1ccc(C(=O)N2N=C(C)/C(=C\c3c(O)ccc4ccccc34)C2=O)cc1` was tested, and the GI50 [1] was 75.2 µM (inactive), the GI50 [2] was > 100 µM (inactive) and the GI50 [3] was 18.4 µM. For the same compound, the GI50 [4] was 29.8 µM (inactive), the GI50 [5] was > 100 µM (inactive) and the GI50 [6] was 48.8 µM (inactive). For the same compound, the GI50 [7] was 45.6 µM (inactive), the GI50 [8] was 85.1 µM (inactive) and the GI50 [9] was 57.8 µM (inactive). For the same compound, the GI50 [10] was 24 µM (inactive), the GI50 [11] was > 100 µM (inactive) and the GI50 [12] was > 100 µM (inactive). The GI50 [13] was 35.4 µM (inactive), the GI50 [14] was 30.6 µM (inactive) and the GI50 [15] was 39 µM (inactive). The GI50 [16] was 57.4 µM (inactive), the GI50 [17] was 56 µM (inactive) and the GI50 [18] was 53.3 µM (inactive).

`O=S1(=O)OCCOS(=O)(=O)C1Cc1ccccc1` was tested, and the GI50 [1] was 65 µM (inactive), the GI50 [2] was 63.5 µM (inactive) and the GI50 [5] was 19.1 µM (inactive). The GI50 [6] was 46.1 µM (inactive), the GI50 [7] was 39.5 µM (inactive) and the GI50 [19] was 36.8 µM (inactive). For the same compound, the GI50 [9] was > 100 µM (inactive), the GI50 [10] was > 100 µM (inactive) and the GI50 [11] was 55.8 µM (inactive). The GI50 [12] was 70.3 µM (inactive), the GI50 [14] was 51.5 µM (inactive) and the GI50 [15] was 57.8 µM (inactive). The GI50 [16] was 21.4 µM (inactive), the GI50 [17] was 39.1 µM (inactive) and the GI50 [18] was 28.8 µM (inactive).

For `CC1=NN(C(=O)Cc2ccccc2)C(=O)/C1=C\c1ccccc1O`, the GI50 [1] was > 100 µM (inactive), the GI50 [2] was > 100 µM (inactive) and the GI50 [3] was over 100 µM. For the same compound, the GI50 [4] was > 100 µM (inactive), the GI50 [5] was > 100 µM (inactive) and the GI50 [6] was > 100 µM (inactive). The GI50 [7] was > 100 µM (inactive), the GI50 [19] was > 100 µM (inactive) and the GI50 [8] was > 100 µM (inactive). For the same compound, the GI50 [9] was > 100 µM (inactive), the GI50 [10] was > 100 µM (inactive) and the GI50 [11] was > 100 µM (inactive). For the same compound, the GI50 [12] was > 100 µM (inactive), the GI50 [13] was > 100 µM (inactive) and the GI50 [14] was > 100 µM (inactive). For the same compound, the GI50 [15] was > 100 µM (inactive), the GI50 [16] was > 100 µM (inactive) and the GI50 [17] was > 100 µM (inactive).

With `CN1CCCc2nc3ccccc3n2C1` the GI50 [1] was > 100 µM (inactive), the GI50 [2] was > 100 µM (inactive) and the GI50 [3] was over 100 µM. For the same compound, the GI50 [4] was > 100 µM (inactive), the GI50 [5] was > 100 µM (inactive) and the GI50 [6] was > 100 µM (inactive). For the same compound, the GI50 [7] was > 100 µM (inactive), the GI50 [19] was > 100 µM (inactive) and the GI50 [8] was > 100 µM (inactive). The GI50 [9] was > 100 µM (inactive), the GI50 [10] was > 100 µM (inactive) and the GI50 [11] was > 100 µM (inactive). For the same compound, the GI50 [12] was > 100 µM (inactive), the GI50 [13] was > 100 µM (inactive) and the GI50 [14] was > 100 µM (inactive). The GI50 [15] was > 100 µM (inactive), the GI50 [16] was > 100 µM (inactive) and the GI50 [17] was > 100 µM (inactive).

`Cc1cccc(C)c1NC(=O)C(=O)C(C#N)c1ccccc1` (stereo not given) was tested, and the GI50 [1] was > 100 µM (inactive), the GI50 [2] was > 100 µM (inactive) and the GI50 [3] was over 100 µM. For the same compound, the GI50 [4] was > 100 µM (inactive), the GI50 [5] was > 100 µM (inactive) and the GI50 [6] was > 100 µM (inactive). For the same compound, the GI50 [7] was > 100 µM (inactive), the GI50 [19] was > 100 µM (inactive) and the GI50 [8] was > 100 µM (inactive). The GI50 [9] was > 100 µM (inactive), the GI50 [10] was > 100 µM (inactive) and the GI50 [11] was > 100 µM (inactive). For the same compound, the GI50 [12] was > 100 µM (inactive), the GI50 [13] was > 100 µM (inactive) and the GI50 [14] was > 100 µM (inactive). The GI50 [15] was > 100 µM (inactive), the GI50 [16] was > 100 µM (inactive) and the GI50 [17] was > 100 µM (inactive).

For `C/C(=C\c1csc(C)n1)[C@@H]1C[C@@H]2O[C@@H]2CCC[C@H](C)[C@H](O)[C@@H](C)C(=O)C(C)(C)[C@@H](O)CC(=O)O1.C/C(=C\c1csc(C)n1)[C@@H]1C[C@@H]2O[C@]2(C)CCC[C@H](C)[C@H](O)[C@@H](C)C(=O)C(C)(C)[C@@H](O)CC(=O)O1`, the GI50 [1] was 0.00255 µM (active), the GI50 [2] was 0.00107 µM (active) and the GI50 [3] was 0.00218 µM. The GI50 [4] was 0.0246 µM (active), the GI50 [5] was 0.00299 µM (active) and the GI50 [6] was 0.00562 µM (active). For the same compound, the GI50 [19] was 0.0105 µM (active), the GI50 [8] was 0.00266 µM (active) and the GI50 [9] was 0.00475 µM (active). The GI50 [10] was 0.129 µM (active), the GI50 [11] was 0.0101 µM (active) and the GI50 [12] was 0.0191 µM (active). For the same compound, the GI50 [13] was 0.00408 µM (active), the GI50 [14] was 0.0179 µM (active) and the GI50 [20] was 0.00293 µM (active). The GI50 [15] was 0.0297 µM (active), the GI50 [16] was 0.00475 µM (active) and the GI50 [17] was 0.0122 µM (active). For the same compound, the GI50 [18] was 0.00397 µM (active).

For `CC(=O)NC1C(OCc2ccccc2)OC(CO)C(O)C1OCC(=O)NC(C(=O)NC(CCC(=O)NCCCCCC(=O)Nc1ccc2c(c1)CN1C(=O)c3ccccc3C1=N2)C(N)=O)C(C)C` (stereo not given), the GI50 [1] was 50.6 µM (inactive), the GI50 [2] was 42.8 µM (inactive) and the GI50 [3] was 52.2 µM. The GI50 [4] was 27.1 µM (inactive), the GI50 [5] was 47 µM (inactive) and the GI50 [6] was > 100 µM (inactive). For the same compound, the GI50 [19] was 24.9 µM (inactive), the GI50 [8] was 40.6 µM (inactive) and the GI50 [9] was 20.8 µM (inactive). The GI50 [10] was 23.8 µM (inactive), the GI50 [11] was 28.8 µM (inactive) and the GI50 [12] was 20.9 µM (inactive). For the same compound, the GI50 [13] was 21.4 µM (inactive), the GI50 [14] was 46.3 µM (inactive) and the GI50 [20] was 16.9 µM (inactive). For the same compound, the GI50 [15] was 47.4 µM (inactive), the GI50 [16] was > 100 µM (inactive) and the GI50 [17] was 19.7 µM (inactive). The GI50 [18] was 88.1 µM (inactive).
